# Where two headings read alike, the source gives them in different places.
# Tests used:
# [1] = cited from earlier work
# [2] = Ex vivo skin permeation, static Franz-type diffusion cells, HPLC-DAD relative quantification; format: in vitro ADME, porcine; conditions: for total permeated amounts (AUC), comparison of the two ointments: after 32 h, lard ointment versus wool wax/castor oil ointment; for Enhancement Factor: mean flux from lard versus wool wax/castor oil; for Mean Flux Based on AUC/cm^2/h (relative mass flux): infinite dose 500 mg, 32 °C, n = 9 cells; for time after which detectable in acceptor samples: wool wax/castor oil and Picea-Salbe ointments
# Method: Skin permeation studies were performed using dermatomed porcine ear skin and static Franz-type diffusion cells (PermeGear, Hellertown, PA, USA, permeation area of 0.95 cm^2, acceptor volume of 2 mL). Porcine ears were obtained after sacrifice from a local abattoir (Johann Gantner GmbH, Gemeinde Hollabrunn, Austria, male and female animals at six months of age). The ears were cleaned under running water and were dried and stored at −18 °C until use.
# Fresh vehicles were prepared 48 h before the start of the experiments. Skin from the dorsal side of the ears was cut to a thickness of 400 µm with a dermatome (Aesculap GA 630 DBP, Aesculap AG, Tuttlingen, Germany). Hair was removed with scissors. The skin was cut into 1 × 1 cm pieces and was clamped between donor and acceptor chamber. The acceptor medium consisted of a mixture of phosphate-buffered saline and ethanol (60:40% v/v) to ensure sink conditions. The phosphate-buffered saline was prepared as described in the Pharmacopoeia Europaea (0.012 M, pH of 7.4, 0.238% w/w sodium monohydrogen phosphate, 0.019% w/w potassium dihydrogen phosphate, and 0.8% w/w sodium chloride). Before starting the experiments, the transepidermal water loss (TEWL) was measured with a closed-chamber device and a coupling adapter (Aquaflux® AF200, Biox Systems Ltd., London, UK) to ensure consistent skin quality and barrier function.
# The ointments were applied to the donor chambers at infinite dose conditions (500 mg of formulation). The donor compartment and sampling arm were occluded with Parafilm to prevent evaporation of sample or acceptor fluid. The diffusion cells were kept in a water bath at 32 °C to simulate skin surface temperature. Magnetic stirring was employed to avoid concentration layers within the acceptor fluid. Cells were regularly checked for air bubbles. After predefined intervals (2, 4, 6, 8, 24, 28, and 32 h), an aliquot of 200 μL of acceptor medium was taken for analysis and was replaced with fresh acceptor medium at 32 °C.
# The most suitable formulation was chosen for analysis of permeation potential as well as the commercial product Picea-Salbe®. Three individual permeation experiments with n = 3 cells were performed for formulations and controls. The final results depict mean values ± SDs of n = 9 cells per formulation. As controls, the respective ointment bases without PSB as well as the plain acceptor medium alone were used.
# For the analysis of samples drawn from Franz diffusion cells, a Shimadzu HPLC instrumentation with diode array detection (SHIMADZU Autosampler SIL-20AC HAT, SHIMADZU Column Oven CTO-20AC, SHIMADZU Communications Bus Module CBM-20A, SHIMADZU Degasser DGU-20A5, SHIMADZU Diode Array Detector SPD-M20A, SHIMADZU Liquid Chromatograph LC-20AD, SHIMADZU LabSolutions Software 5.81, Shimadzu, Kyoto, Japan) was used. A reversed-phase C18 column (LiChrospher 100 RP18e, 5 μm, 250 × 4 mm, Merck KGaA, Darmstadt, Germany) was employed as stationary phase. Double-distilled water + 0.1% formic acid (solvent A) and acetonitrile + 0.1% formic acid (solvent B) served as mobile phase, and gradient elution at 1 mL/min flow rate was applied as follows: 15% solvent B rose to 95% solvent B within 45 min (rate of 1.77%/min) followed by 5 min washing step at 98% solvent B and re-equilibration for 10 min with 15% solvent B. Samples drawn from Franz diffusion cells were centrifuged, and 10 μL were injected into the system. PSB samples were dissolved in acetone to a final concentration of 5 mg/mL, and 2 μL were analyzed. […] Peak areas (AUC) were obtained using the SHIMADZU LabSolutions Software 5.81 (Shimadzu, Kyoto, Japan) and were further utilized for interpretation of data.
# [3] = vehicle lard (Picea-Salbe, 20% spruce balm)
# [4] = vehicle wool wax/castor oil with 20% PSB (batch PSB5)
molecule,measurement,setting,value
CC(C)=C1C=C2CCC3C(C)(C(=O)O)CCCC3(C)C2CC1 (centres unmarked) [Neoabietic acid],Effects contributing to wound healing,[1]; Diterpene resin acids (302 Da),"re-epithelialization boosting [9], antimicrobial [24, 25, 26, 27], anti-inflammatory [28, 29, 30], and antioxidant effects [31]"
"CC(C)(O)c1ccc2c(c1)CC[C@H]1[C@](C)(C(=O)O)CCC[C@]21C [15-hydroxy-dehydroabietic acid, 15-Hydroxy-dehydroabietic acid]","total permeated amounts (AUC), comparison of the two ointments",[2],a similar trend was observed
same,Enhancement Factor,[2],1.8
same,Mean Flux Based on AUC/cm^2/h (relative mass flux),[2]; [3],25.558 ± 9.673 AUC/cm^2/h
same,Mean Flux Based on AUC/cm^2/h (relative mass flux),[2]; [4],13.606 ± 6.196 AUC/cm^2/h
same,time after which detectable in acceptor samples,[2],24 h
same,Effects contributing to wound healing,[1]; Hydroxylated resin acids,"re-epithelialization boosting [9], antimicrobial [22], and anti-inflammatory effects [23]"
"CC(C)(O)c1ccc2c(c1)[C@@H](O)CC1[C@](C)(C(=O)O)CCC[C@]21C (stereo partly drawn) [7β,15-Dihydroxy-dehydroabietic acid]",Effects contributing to wound healing,[1]; Hydroxylated resin acids,"re-epithelialization boosting [9], antimicrobial [22], and anti-inflammatory effects [23]"
CC(C)c1ccc2c(c1)C(O)CC1[C@](C)(C(=O)O)CCC[C@]21C (some centres unmarked) [7-Hydroxy-dehydroabietic acid],Effects contributing to wound healing,[1]; Hydroxylated resin acids,"re-epithelialization boosting [9], antimicrobial [22], and anti-inflammatory effects [23]"
CC(C)C1=CC2=CC[C@@H]3[C@](C)(CCC[C@@]3(C)C(=O)O)[C@H]2CC1 [Abietic acid],Effects contributing to wound healing,[1]; Diterpene resin acids (302 Da),"re-epithelialization boosting [9], antimicrobial [24, 25, 26, 27], anti-inflammatory [28, 29, 30], and antioxidant effects [31]"
COc1cc(/C=C/C(=O)O)ccc1O [Ferulic acid],Effects contributing to wound healing,[1]; Hydroxycinnamic acids,"antioxidant, antimicrobial, and anti-inflammatory effects [19]"
O=C(O)C=Cc1ccc(O)cc1 [p-Coumaric acid],Effects contributing to wound healing,[1]; Hydroxycinnamic acids,"antioxidant, antimicrobial, and anti-inflammatory effects [19]"
C=C[C@]1(C)C=C2CC[C@@H]3[C@](C)(CCC[C@@]3(C)C(=O)O)[C@H]2CC1 [Sandaracopimaric acid],Effects contributing to wound healing,[1]; Diterpene resin acids (302 Da),"re-epithelialization boosting [9], antimicrobial [24, 25, 26, 27], anti-inflammatory [28, 29, 30], and antioxidant effects [31]"
"CC(C)(O)c1ccc2c(c1)[C@H](O)CC1[C@](C)(C(=O)O)CCC[C@]21C (stereo partly drawn) [7α,15-Dihydroxy-dehydroabietic acid]",Effects contributing to wound healing,[1]; Hydroxylated resin acids,"re-epithelialization boosting [9], antimicrobial [22], and anti-inflammatory effects [23]"
"CC(C)c1ccc2c(c1)CC[C@H]1[C@](C)(C(=O)O)CCC[C@]21C [dehydroabietic acid, Dehydroabietic acid]","total permeated amounts (AUC), comparison of the two ointments",[2],highly comparable
same,Enhancement Factor,[2],1.1
same,Mean Flux Based on AUC/cm^2/h (relative mass flux),[2]; [3],24.041 ± 7.099 AUC/cm^2/h
same,Mean Flux Based on AUC/cm^2/h (relative mass flux),[2]; [4],21.848 ± 7.791 AUC/cm^2/h
same,time after which detectable in acceptor samples,[2],8 h
same,Effects contributing to wound healing,[1]; Diterpene resin acids (300 Da),"re-epithelialization boosting [9], anti-inflammatory [23], and antimicrobial effects [24]"
CC(C)C1=CC2=C(CC1)[C@@]1(C)CCC[C@@](C)(C(=O)O)[C@@H]1CC2 [Palustric acid],Effects contributing to wound healing,[1]; Diterpene resin acids (302 Da),"re-epithelialization boosting [9], antimicrobial [24, 25, 26, 27], anti-inflammatory [28, 29, 30], and antioxidant effects [31]"
C=C[C@@]1(C)C=C2CC[C@@H]3[C@](C)(CCC[C@@]3(C)C(=O)O)[C@H]2CC1 [Pimaric acid],Effects contributing to wound healing,[1]; Diterpene resin acids (302 Da),"re-epithelialization boosting [9], antimicrobial [24, 25, 26, 27], anti-inflammatory [28, 29, 30], and antioxidant effects [31]"
Pinoresinol,Effects contributing to wound healing,[1]; Lignans,"antifungal [20], antioxidant, anti-inflammatory [21], and re-epithelialization boosting effects [9]"
O=C(O)/C=C/c1ccc(O)c(O)c1 [Caffeic acid],Effects contributing to wound healing,[1]; Hydroxycinnamic acids,"antioxidant, antimicrobial, and anti-inflammatory effects [19]"
C=C[C@@]1(C)CC[C@H]2C(=CC[C@@H]3[C@]2(C)CCC[C@@]3(C)C(=O)O)C1 [Isopimaric acid],Effects contributing to wound healing,[1]; Diterpene resin acids (302 Da),"re-epithelialization boosting [9], antimicrobial [24, 25, 26, 27], anti-inflammatory [28, 29, 30], and antioxidant effects [31]"
CC(C)C1=CC[C@H]2C(=C1)CC[C@@H]1[C@]2(C)CCC[C@@]1(C)C(=O)O [Levopimaric acid],Effects contributing to wound healing,[1]; Diterpene resin acids (302 Da),"re-epithelialization boosting [9], antimicrobial [24, 25, 26, 27], anti-inflammatory [28, 29, 30], and antioxidant effects [31]"
